# Biological target: T1, human Edg-1 receptor (Homo sapiens, UniProt P21453)
# T1 construct: expressed in transfected cells; membrane preparation
# Experiment: GTP-γ-S assay using human Edg-1 receptors (scintillation proximity assay, membrane preparation from CHO Flp-In cell line)
# Assay type: biochemical
# Settings: example compound at 10 μM; relative to 10 μM S1P; GTP-γ-S SPA, human Edg-1 membranes
# In short: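 Membranes came from Flp-In CHO cells constitutively expressing human Edg-1 carrying an N-terminal FLAG tag. Compound-induced receptor activation was read as GTP-γ-S binding in a scintillation proximity format.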
# T1 sequence (P21453 whole entry): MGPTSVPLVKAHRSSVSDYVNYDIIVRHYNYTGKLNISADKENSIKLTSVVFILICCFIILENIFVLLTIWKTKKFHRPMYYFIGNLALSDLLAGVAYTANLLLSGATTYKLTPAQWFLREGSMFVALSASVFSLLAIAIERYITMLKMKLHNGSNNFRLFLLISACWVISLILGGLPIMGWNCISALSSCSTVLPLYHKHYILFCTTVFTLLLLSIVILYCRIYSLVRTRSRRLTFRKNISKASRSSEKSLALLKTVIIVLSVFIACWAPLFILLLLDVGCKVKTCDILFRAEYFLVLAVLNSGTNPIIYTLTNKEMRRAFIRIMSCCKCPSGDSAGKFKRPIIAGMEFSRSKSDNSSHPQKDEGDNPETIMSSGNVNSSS
row,SMILES,% Activation (Edg-1 receptor activation in percent of the activation by 10 μM S1P)
1,CCOc1nc(Cc2ccc(Cl)cc2)nc2oc(-c3cccc(OCC(=O)NCC(=O)O)c3)nc12 [Example 267],72%
2,CCOc1nc(Cc2ccc(Cl)cc2)nc2oc(-c3cccc(OCC(=O)N[C@@H](C)C(=O)O)c3)nc12 [Example 268],100%
3,CCOc1nc(Cc2ccc(Cl)cc2)nc2oc(-c3cccc(OCC(=O)NC(C)(C)C(=O)O)c3)nc12 [Example 271],53%
4,CCOc1nc(Cc2ccc(Cl)cc2)nc2oc(-c3cc(C)c(OCC(O)CS(=O)(=O)c4nnc(C)[nH]4)c(C)c3)nc12 (stereo not shown) [Example 272],105%
5,CCOc1nc(Cc2ccc(Cl)cc2)nc2oc(-c3cc(C)c(OCCCS(=O)(=O)c4nnc(C5CC5)[nH]4)c(C)c3)nc12 [Example 274],120%
6,CCOc1nc(Cc2ccc(Cl)cc2)nc2oc(-c3cc(C)c(OCCCS(=O)(=O)c4nnc(C(C)C)[nH]4)c(C)c3)nc12 [Example 275],88%
7,CCOc1nc(Cc2ccc(Cl)cc2)nc2oc(-c3cc(C)c(OCCCSc4nnc(C5CC5)[nH]4)c(C)c3)nc12 [Example 276],54%
8,CCOc1nc(Cc2ccc(Cl)cc2)nc2oc(-c3cc(C)c(OCCCS(=O)(=O)c4nnc(C(C)(C)C)[nH]4)c(C)c3)nc12 [Example 278],105%
9,CCOc1nc(Cc2ccc(Cl)cc2)nc2oc(-c3cc(C)c(OCC(O)CNCCCNS(C)(=O)=O)c(C)c3)nc12 (stereo not shown) [Example 280],53%
10,CCOc1nc(Cc2ccc(Cl)cc2)nc2oc(-c3cc(C)c(OCC(O)CSc4nnc(C5CC5)[nH]4)c(C)c3)nc12 (stereo not shown) [Example 281],79%
11,CCOc1nc(Cc2ccc(Cl)cc2)nc2oc(-c3cc(C)c(OCC(O)CSc4nnc(C(C)(C)C)[nH]4)c(C)c3)nc12 (stereo not shown) [Example 282],108%
12,CCOc1nc(Cc2ccc(Cl)cc2)nc2oc(-c3cc(C)c(OCC(O)CS(=O)(=O)c4nnc(C(C)(C)C)[nH]4)c(C)c3)nc12 (stereo not shown) [Example 283],92%
13,CCOc1nc(Cc2ccc(Cl)cc2)nc2oc(-c3cc(C)c(OCCCNCCc4nc(O)n[nH]4)c(C)c3)nc12 [Example 285],146%
14,CCOc1nc(Cc2ccc(Cl)cc2)nc2oc(-c3cc(C)c(OCC(O)C[S+]([O-])c4ncn[nH]4)c(C)c3)nc12 (stereo not shown) [Example 286],114%
15,CCOc1nc(Cc2ccc(Cl)cc2)nc2oc(-c3cc(C)c(OCC(=O)NCCS(N)(=O)=O)c(C)c3)nc12 [Example 287],112%
16,CCOc1nc(Cc2ccc(Cl)cc2)nc2oc(-c3cc(C)c(OCC(=O)NCCCC(=O)O)c(C)c3)nc12 [Example 288],113%
17,CCCOc1nc(Cc2ccc(Cl)cc2)nc2oc(-c3cc(C)c(OCCCN[C@@H](Cc4ccccc4)C(=O)O)c(C)c3)nc12 [Example 289],80%

row,SMILES,% Activation (Edg-1 receptor activation in percent of the activation by 10 μM S1P)
1,CCOc1nc(Cc2ccc(Cl)cc2)nc2oc(-c3cc(C)c(OCC(=O)NCCNS(C)(=O)=O)c(C)c3)nc12 [Example 290],114%
2,CCOc1nc(Cc2ccc(Cl)cc2)nc2oc(-c3cc(C)c(OCC(O)CS(=O)(=O)c4ncn[nH]4)c(C)c3)nc12 (stereo not shown) [Example 291],116%
3,CCOc1nc(Cc2ccc(Cl)cc2)nc2oc(-c3cc(C)c(OCCC[S+]([O-])c4ncn[nH]4)c(C)c3)nc12 (stereo not shown) [Example 292],86%
4,CCOc1nc(Cc2ccc(Cl)cc2)nc2oc(-c3cc(C)c(OCC(O)CSc4ncn[nH]4)c(C)c3)nc12 (stereo not shown) [Example 293],99%
5,CCOc1nc(Cc2ccc(Cl)cc2)nc2oc(-c3cc(C)c(OCC(=O)NCC#N)c(C)c3)nc12 [Example 294],83%
6,CCOc1nc(Cc2ccc(Cl)cc2)nc2oc(-c3cc(C)c(OCCCS(=O)(=O)c4ncn[nH]4)c(C)c3)nc12 [Example 295],100%
7,CCOc1nc(Cc2ccc(Cl)cc2)nc2oc(-c3cc(C)c(OCCCSc4ncn[nH]4)c(C)c3)nc12 [Example 296],52%
8,CCOc1nc(Cc2ccc(Cl)cc2)nc2oc(-c3cccc(OCC(=O)N[C@@H](CO)C(=O)O)c3)nc12 [Example 297],99%
9,CCOc1nc(Cc2ccc(Cl)cc2)nc2oc(-c3cccc(OCC(=O)NCCC(=O)O)c3)nc12 [Example 298],92%
10,CCOc1nc(Cc2ccc(Cl)cc2)nc2oc(-c3cc(C)c(OCC(=O)NCCCNS(C)(=O)=O)c(C)c3)nc12 [Example 299],94%
11,CCOc1nc(Cc2ccc(Cl)cc2)nc2oc(-c3cc(C)c(OCC(O)CS(=O)(=O)c4nnc(C5CC5)[nH]4)c(C)c3)nc12 (stereo not shown) [Example 300],89%
12,CCOc1nc(Cc2ccc(Cl)cc2)nc2oc(-c3cc(C)c(OCC4(CO)COC4)c(C)c3)nc12 [Example 301],97%
13,CCCOc1nc(Cc2ccc(Cl)cc2)nc2oc(-c3cc(C)c(OCC(O)CNC(=O)c4ccco4)c(C)c3)nc12 (stereo not shown) [Example 305],103%
14,CCCOc1nc(Cc2ccc(Cl)cc2)nc2oc(-c3cc(C)c(OCC(O)CNC(=O)C4(O)CC4)c(C)c3)nc12 (stereo not shown) [Example 308],107%
15,CCOc1nc(Cc2ccc(Cl)cc2)nc2oc(-c3cc(C)c(OCC(=O)NCCC(=O)O)c(C)c3)nc12 [Example 314],96%
16,CCOc1nc(Cc2ccc(Cl)cc2)nc2oc(-c3cc(C)c(OCC(=O)N4CC[C@@H]5C[C@@]54C(=O)O)c(C)c3)nc12 [Example 318],101%

# The next lines start with the values.
row,% Activation (Edg-1 receptor activation in percent of the activation by 10 μM S1P),SMILES
1,52%,CCOc1nc(Cc2ccc(Cl)cc2)nc2oc(-c3cccc(OCC(=O)NCCN4CCOCC4)c3)nc12 [Example 266]
2,69%,CCOc1nc(Cc2ccc(Cl)cc2)nc2oc(-c3cccc(OCC(=O)N4CCC[C@@H]4C(=O)O)c3)nc12 [Example 269]
3,104%,CCOc1nc(Cc2ccc(Cl)cc2)nc2oc(-c3cccc(OCC(=O)N4CCC[C@H]4C(=O)O)c3)nc12 [Example 270]
4,106%,CCOc1nc(Cc2ccc(Cl)cc2)nc2oc(-c3ccc(O)c(F)c3)nc12 [Example 273]
5,49%,CCOc1nc(Cc2ccc(Cl)cc2)nc2oc(-c3ccc(OC)c(F)c3)nc12 [Example 277]
6,77%,CCOc1nc(Cc2ccc(Cl)cc2)nc2oc(-c3ccc(OCC(=O)NCCN4CCOCC4)c(F)c3)nc12 [Example 279]
7,103%,CCOc1nc(Cc2ccc(Cl)cc2)nc2oc(-c3cccc(OC)c3)nc12 [Example 284]
8,103%,CCOc1nc(Cc2ccc(Cl)cc2)nc2oc(-c3cccc(O)c3)nc12 [Example 302]
9,104%,CCCOc1nc(CN2CC[C@@H](F)C2)nc2oc(-c3cccc(F)c3)nc12 [Example 303]
10,102%,CCCOc1nc(CN2CCCC(C(F)(F)F)C2)nc2oc(-c3cccc(F)c3)nc12 (stereo not shown) [Example 304]
11,81%,CCCOc1nc(Cc2ccc(Cl)cc2)nc2oc(-c3cc(C)c(OCC(=O)N4CCOCC4)c(C)c3)nc12 [Example 306]
12,10%,CCCOc1nc(Cc2ccc(Cl)cc2)nc2oc(-c3cc(C)c(OCC(=O)N4CCC[C@H]4C(=O)OC(C)(C)C)c(C)c3)nc12 [Example 307]
13,104%,CCOc1nc(CC2CCCCC2)nc2oc(-c3cccc(C)c3)nc12 [Example 309]
14,87%,CCOc1nc(Cc2ccc(Cl)cc2)nc2oc(-c3cccc(OCC(=O)O)c3)nc12 [Example 310]
15,78%,CCOc1nc(Cc2ccc(Cl)cc2)nc2oc(-c3cc(C)c(OCC(=O)N4CCC[C@H]4C(=O)O)c(C)c3)nc12 [Example 311]
16,143%,CCCOc1nc(Cc2ccc(Cl)cc2)nc2oc(-c3cc(C)c(OCC(O)CNC4CCN(C)CC4)c(C)c3)nc12 (stereo not shown) [Example 313]
17,79%,CCCOc1nc(Cc2ccc(Cl)cc2)nc2oc(-c3cc(C)c(OCC4CC4)c(C)c3)nc12 [Example 315]
18,70%,CCCOc1nc(Cc2ccc(Cl)cc2)nc2oc(-c3cc(C)c(OCC(=O)CC)c(C)c3)nc12 [Example 316]
19,105%,CCCOc1nc(Cc2ccccc2)nc2oc(-c3cccc(OC)c3)nc12 [Example 317]

# From patent US8735387B2, “Oxazolopyrimidines as Edg-1 receptor agonists” (Sanofi, priority 2008, dated 2014)
